One series has as its system Pyriculaia oryzae. In kind it is in vivo. The following applies: rice, protective, 750 g/ha, evaluation 4 days after inoculation, vs untreated control.
For series [1], the system named is Erysiphe graminis f.sp. hordei. Put plainly: Erysiphe test (barley)/protective. It counts as in vivo. The conditions noted are these: protective, 250 g/ha, evaluation 7 days after inoculation, vs untreated control. As for the experimental part: Erysiphe Test (barley)/Protective Solvent: 10 parts by weight of N-methyl-pyrrolidone. Emulsifier: 0.6 part by weight of alkylaryl polyglycol ether. To produce a suitable preparation of active compound, 1 part by weight of active compound is mixed with the stated amounts of solvent and emulsifier, and the concentrate is diluted with water to the desired concentration. To test for protective activity, young plants are sprayed with the preparation of active compound at the stated application rate. After the spray coating has dried on, the plants are dusted with spores of Erysiphe graminis f.sp. hordei.

Series [2] can be described thus: logP determination by HPLC (EEC Directive 79/831 Annex V. A8). The following applies: gradient method, acetonitrile/0.1% aqueous phosphoric acid.

SMILES strings stand for the structures.

With `CNC(=O)/C(=N/OC)c1ccccc1Oc1ncnc(Oc2ccccc2Cl)c1F` [Example 1, 2-{2-[6-(2-chlorophenoxy)-5-fluoro-pyrimidine4-yloxy]-phenyl}-2-methoxyimino-N-methylacetamide], in the series with Pyriculaia oryzae, the efficacy came to 80%.
By chromatographic logP is commonly meant lipophilicity estimated from chromatographic retention. Low values mean a more hydrophilic compound, high ones a more lipophilic compound. `CNC(=O)/C(=N/OC)c1ccccc1Oc1ncnc(Oc2ccccc2C)c1F` [Example 2, 2-[2-(5-fluoro-6-o-tolyloxy-pyrimidin-4-yloxy)-phenyl]-2-methoxyimino-N-methyl-acetamide] displayed a chromatographic logP in the series “physchem” of 3.04. In addition, the efficacy in the series with Pyriculaia oryzae is recorded as 80%; in series [1], 100%.
In the series with Pyriculaia oryzae, `CNC(=O)C(=NOC)c1ccccc1Oc1ncnc(Oc2ccccc2C#N)c1F` [Example 4] registered an efficacy of 80%.
As for `C=CCOc1ccccc1Oc1ncnc(Oc2ccccc2C(=NOC)C(=O)NC)c1F` [Example 8], the efficacy came to 80% in the series with Pyriculaia oryzae and 100% in series [1].
With `CCC(=O)Oc1ccccc1Oc1ncnc(Oc2ccccc2C(=NOC)C(=O)NC)c1F` [Example 9], the efficacy with Pyriculaia oryzae is reported as 80%.
Same read-out and setting: the result for `CON=C(C(N)=O)c1ccccc1Oc1ncnc(Oc2ccccc2Cl)c1F` [Example 10] reads 80%.
One may read the logP as a log measure of how a compound divides between an organic and an aqueous phase. Low values mean a more hydrophilic compound, high ones a more lipophilic compound. In turn, `CNC(=O)C(=NOC)c1ccccc1Oc1ncnc(Oc2ccc(Cl)cc2Cl)c1F` [Example 15] had a log partition coefficient (logP) in series [2] of 3.61.
In the series with Pyriculaia oryzae, `CNC(=O)C(=NOC)c1ccccc1Oc1ncnc(Oc2cc(C)ccc2C)c1F` [Example 20] gave an efficacy of 80%.
Take `CNC(=O)C(=NOC)c1ccccc1Oc1ncnc(Oc2c(C)cccc2C)c1F` [Example 21]: the efficacy with Pyriculaia oryzae came to 80%.
On the same count and under the same terms, the result for `CNC(=O)C(=NOC)c1ccccc1Oc1ncnc(Oc2ccc(C)cc2Cl)c1F` [Example 22] reads 80%.
Still for that read-out and setting: the same measure for `CNC(=O)C(=NOC)c1ccccc1Oc1ncnc(Oc2cccc(Cl)c2C)c1F` [Example 24]: 80%.
`CO/N=C(/C(N)=O)c1ccccc1O` [Example II-1, 2-(2-hydroxy-phenyl)-2-methoxyimino-acetamide]: the chromatographic logP in “physchem” was determined as 0.83.

For the origin of these results see US6359133B2, “Halogen pyrimidinyl aryl (thio) ethers as pesticides” (Bayer Aktiengesellschaft, priority 1996, dated 2002).
